Data as given in ChEMBL document CHEMBL5465560, “Selectivity Literature for EUbOPEN Chemogenomic Library” (2024).

Assays:
[1] = molecular target: T1, Serine/threonine-protein kinase STK11 (Homo sapiens) (UniProt Q15831); conditions: at 10 µM
T1 sequence (whole entry): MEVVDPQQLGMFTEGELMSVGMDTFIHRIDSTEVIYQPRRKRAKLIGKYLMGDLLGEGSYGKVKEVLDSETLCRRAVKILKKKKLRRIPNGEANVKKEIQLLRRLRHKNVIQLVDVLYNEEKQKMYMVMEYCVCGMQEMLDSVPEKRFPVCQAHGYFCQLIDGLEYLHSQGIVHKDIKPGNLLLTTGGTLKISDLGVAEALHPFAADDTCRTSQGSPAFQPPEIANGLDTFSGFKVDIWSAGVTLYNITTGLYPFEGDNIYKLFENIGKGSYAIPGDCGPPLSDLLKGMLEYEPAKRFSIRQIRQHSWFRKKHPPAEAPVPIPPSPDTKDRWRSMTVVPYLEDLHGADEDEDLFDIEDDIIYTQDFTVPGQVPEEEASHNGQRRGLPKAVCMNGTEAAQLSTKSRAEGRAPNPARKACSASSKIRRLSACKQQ

[2] = molecular target: ATPase family AAA domain-containing protein 2B (Homo sapiens) (UniProt Q9ULI0); assay: Selectivity interaction (Bromodomain panel (DSF asssay)) EUB0000270b ATAD2B
Chain of ATPase family AAA domain-containing protein 2B (Homo sapiens) (Q9ULI0 whole entry, the tested form may be a part): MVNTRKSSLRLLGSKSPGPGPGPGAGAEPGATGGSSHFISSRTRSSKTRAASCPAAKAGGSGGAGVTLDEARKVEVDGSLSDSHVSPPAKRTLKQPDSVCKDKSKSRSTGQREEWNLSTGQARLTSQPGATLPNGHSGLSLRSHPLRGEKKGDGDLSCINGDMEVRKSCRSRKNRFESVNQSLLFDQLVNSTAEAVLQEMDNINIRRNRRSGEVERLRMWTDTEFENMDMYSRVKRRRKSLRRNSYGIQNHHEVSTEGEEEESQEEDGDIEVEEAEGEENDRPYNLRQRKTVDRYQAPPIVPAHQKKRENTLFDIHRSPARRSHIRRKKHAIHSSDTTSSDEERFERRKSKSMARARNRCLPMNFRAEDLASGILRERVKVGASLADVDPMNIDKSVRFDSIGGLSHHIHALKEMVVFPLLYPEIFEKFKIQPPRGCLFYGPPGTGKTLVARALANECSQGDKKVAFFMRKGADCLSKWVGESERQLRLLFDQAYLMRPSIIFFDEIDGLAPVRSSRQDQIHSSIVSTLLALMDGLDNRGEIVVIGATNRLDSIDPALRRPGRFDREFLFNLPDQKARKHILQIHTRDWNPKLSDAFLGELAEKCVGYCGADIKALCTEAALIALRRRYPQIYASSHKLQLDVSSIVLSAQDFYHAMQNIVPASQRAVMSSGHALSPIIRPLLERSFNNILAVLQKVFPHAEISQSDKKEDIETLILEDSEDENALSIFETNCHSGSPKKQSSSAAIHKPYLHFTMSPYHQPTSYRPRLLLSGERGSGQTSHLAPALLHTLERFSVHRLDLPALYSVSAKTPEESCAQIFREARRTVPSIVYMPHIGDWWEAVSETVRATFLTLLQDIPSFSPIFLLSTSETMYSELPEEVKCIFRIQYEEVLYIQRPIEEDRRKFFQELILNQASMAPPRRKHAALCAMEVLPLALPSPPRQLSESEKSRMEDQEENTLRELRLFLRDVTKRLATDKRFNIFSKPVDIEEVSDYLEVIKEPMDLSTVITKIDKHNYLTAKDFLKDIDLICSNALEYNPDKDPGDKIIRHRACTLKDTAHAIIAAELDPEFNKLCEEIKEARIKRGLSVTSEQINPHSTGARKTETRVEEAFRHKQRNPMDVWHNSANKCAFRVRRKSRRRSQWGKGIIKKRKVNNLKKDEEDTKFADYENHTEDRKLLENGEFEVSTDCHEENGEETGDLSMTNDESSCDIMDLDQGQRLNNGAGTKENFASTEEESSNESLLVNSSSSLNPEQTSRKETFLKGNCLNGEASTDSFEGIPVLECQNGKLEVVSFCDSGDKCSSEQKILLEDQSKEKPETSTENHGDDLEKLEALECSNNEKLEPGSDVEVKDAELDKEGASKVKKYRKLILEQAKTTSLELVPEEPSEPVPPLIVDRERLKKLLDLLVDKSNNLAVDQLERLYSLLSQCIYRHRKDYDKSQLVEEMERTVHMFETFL

[3] = molecular target: Myosin-IIIa (Homo sapiens) (UniProt Q8NEV4); assay: Selectivity interaction (LanthaScreen Eu Kinase Binding Assay) EUB0001632a MYO3A; conditions: at 10 µM
Chain of Myosin-IIIa (Homo sapiens) (Q8NEV4 whole entry): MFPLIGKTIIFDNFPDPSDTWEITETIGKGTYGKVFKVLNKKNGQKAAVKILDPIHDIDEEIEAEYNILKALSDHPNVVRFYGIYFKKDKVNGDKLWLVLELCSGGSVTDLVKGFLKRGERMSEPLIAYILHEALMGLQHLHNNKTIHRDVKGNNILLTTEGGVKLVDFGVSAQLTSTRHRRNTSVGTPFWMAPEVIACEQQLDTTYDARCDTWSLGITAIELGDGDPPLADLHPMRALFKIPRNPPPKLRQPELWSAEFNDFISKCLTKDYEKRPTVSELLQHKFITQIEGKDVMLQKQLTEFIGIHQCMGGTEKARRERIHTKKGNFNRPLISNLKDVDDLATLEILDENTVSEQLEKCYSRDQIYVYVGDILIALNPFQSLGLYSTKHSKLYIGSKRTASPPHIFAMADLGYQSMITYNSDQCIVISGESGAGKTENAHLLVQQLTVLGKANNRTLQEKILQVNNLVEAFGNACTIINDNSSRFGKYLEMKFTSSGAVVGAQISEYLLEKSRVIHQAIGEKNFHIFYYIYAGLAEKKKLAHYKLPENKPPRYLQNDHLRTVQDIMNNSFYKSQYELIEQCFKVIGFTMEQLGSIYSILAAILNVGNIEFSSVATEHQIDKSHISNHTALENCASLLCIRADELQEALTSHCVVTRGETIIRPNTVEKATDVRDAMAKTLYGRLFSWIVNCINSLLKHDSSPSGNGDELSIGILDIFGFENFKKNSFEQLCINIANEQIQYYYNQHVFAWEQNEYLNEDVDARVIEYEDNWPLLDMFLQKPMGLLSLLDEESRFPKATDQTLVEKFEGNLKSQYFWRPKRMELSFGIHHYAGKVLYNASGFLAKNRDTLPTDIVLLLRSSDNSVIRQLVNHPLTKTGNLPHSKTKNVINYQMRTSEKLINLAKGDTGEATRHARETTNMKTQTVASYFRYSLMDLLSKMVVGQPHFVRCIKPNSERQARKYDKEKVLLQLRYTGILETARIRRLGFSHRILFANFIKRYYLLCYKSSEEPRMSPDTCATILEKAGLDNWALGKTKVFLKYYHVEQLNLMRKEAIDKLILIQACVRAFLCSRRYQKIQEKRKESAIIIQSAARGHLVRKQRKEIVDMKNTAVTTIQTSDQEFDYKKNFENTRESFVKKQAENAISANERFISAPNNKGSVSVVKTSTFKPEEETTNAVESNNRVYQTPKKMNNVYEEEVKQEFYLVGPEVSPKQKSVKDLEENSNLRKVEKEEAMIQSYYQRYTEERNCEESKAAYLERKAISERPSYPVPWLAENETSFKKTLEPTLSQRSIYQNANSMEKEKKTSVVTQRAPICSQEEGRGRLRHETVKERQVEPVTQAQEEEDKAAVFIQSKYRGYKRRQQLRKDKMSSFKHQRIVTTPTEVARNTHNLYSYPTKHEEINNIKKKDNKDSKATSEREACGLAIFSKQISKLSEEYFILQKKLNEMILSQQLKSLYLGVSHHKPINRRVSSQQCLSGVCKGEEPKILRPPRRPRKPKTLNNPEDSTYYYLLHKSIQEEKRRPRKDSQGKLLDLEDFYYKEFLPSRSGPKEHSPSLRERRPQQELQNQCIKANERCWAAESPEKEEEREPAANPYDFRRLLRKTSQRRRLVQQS

[4] = molecular target: T2, cAMP-dependent protein kinase catalytic subunit PRKX (Homo sapiens) (UniProt P51817); assay: Selectivity interaction (KinomeScan (DiscoverX)) EUB0000695a PRKX; conditions: at 100 nM
T2 sequence (whole entry): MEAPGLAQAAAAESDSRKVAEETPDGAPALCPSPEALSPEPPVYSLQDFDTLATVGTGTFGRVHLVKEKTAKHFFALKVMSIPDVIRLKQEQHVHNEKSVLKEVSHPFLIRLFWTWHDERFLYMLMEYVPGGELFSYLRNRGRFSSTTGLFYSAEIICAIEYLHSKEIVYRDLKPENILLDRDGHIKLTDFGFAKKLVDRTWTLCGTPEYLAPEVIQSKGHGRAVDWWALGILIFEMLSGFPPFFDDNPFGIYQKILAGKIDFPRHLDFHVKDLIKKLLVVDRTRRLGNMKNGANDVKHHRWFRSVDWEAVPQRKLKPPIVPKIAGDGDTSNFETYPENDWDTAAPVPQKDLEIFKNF

[5] = molecular target: T3, Protein kinase C epsilon type (Homo sapiens) (UniProt Q02156); assay: Selectivity interaction (SelectScreen profiling (Invitrogen)) EUB0000607a PRKCE; conditions: at 2 µM
T3 sequence (whole entry): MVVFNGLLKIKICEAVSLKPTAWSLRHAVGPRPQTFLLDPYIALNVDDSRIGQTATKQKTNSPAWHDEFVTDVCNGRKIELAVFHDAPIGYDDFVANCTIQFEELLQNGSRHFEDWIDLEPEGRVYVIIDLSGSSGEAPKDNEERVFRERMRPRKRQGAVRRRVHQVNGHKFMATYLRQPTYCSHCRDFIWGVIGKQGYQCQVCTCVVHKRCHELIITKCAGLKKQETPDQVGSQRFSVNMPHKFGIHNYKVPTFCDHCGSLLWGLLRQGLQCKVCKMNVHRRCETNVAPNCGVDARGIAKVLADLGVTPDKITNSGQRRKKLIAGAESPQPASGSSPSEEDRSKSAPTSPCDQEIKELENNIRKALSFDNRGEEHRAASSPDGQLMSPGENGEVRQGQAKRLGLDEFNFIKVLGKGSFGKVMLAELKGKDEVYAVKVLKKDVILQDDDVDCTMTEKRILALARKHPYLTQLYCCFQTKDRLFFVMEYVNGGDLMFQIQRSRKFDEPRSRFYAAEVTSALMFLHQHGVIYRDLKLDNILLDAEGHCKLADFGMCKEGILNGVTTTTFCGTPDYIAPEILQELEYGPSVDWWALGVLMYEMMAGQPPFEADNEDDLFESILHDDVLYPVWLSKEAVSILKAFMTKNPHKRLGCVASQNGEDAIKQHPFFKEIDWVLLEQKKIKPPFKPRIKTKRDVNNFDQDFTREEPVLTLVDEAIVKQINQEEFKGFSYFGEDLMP

[6] = molecular target: T4, Serine/threonine-protein kinase Nek3 (Homo sapiens) (UniProt P51956); assay: Selectivity interaction (Kinase panel (KiNativ target engagement assay in Jurkat cells)) EUB0001635a NEK3; format: cell-based; conditions: at 1 µM
T4 sequence (whole entry): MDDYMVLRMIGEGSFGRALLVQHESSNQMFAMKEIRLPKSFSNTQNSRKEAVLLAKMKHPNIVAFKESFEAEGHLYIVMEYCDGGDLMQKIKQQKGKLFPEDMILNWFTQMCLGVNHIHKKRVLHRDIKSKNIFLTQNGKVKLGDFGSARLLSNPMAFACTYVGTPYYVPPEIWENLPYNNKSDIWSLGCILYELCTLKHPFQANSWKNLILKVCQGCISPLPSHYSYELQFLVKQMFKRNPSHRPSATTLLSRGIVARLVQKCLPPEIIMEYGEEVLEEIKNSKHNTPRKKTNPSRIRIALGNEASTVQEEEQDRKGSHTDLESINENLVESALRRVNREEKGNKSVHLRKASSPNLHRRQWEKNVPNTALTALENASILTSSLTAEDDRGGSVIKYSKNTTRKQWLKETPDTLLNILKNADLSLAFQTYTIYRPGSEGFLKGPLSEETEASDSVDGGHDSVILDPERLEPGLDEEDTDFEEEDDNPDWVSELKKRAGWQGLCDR

**Q.** For `Cc1cc([C@@H](C)Nc2ccccc2C(=O)O)c2nc(N3CCOCC3)cc(=O)n2c1` [AZD-6482], which % of control [1] is on record?
**A.** 98%

**Q.** `Cc1cc(CN)cc(C)c1-c1ncn(C)c1-c1cncn1C` was tested. Which dTM [2] did it give?
**A.** -1.47 K

**Q.** With `Cn1cc(-n2cnc3c(NCc4nc5cc(Cl)c(Cl)cc5[nH]4)nc(N4CCOCC4)nc32)cn1` as the compound, how does the % of inhibition [3] read?
**A.** -42.6%

**Q.** `Cc1cc(F)c(C(=O)Nc2cccc(-c3nncn3C(C)C)n2)cc1-n1cnc(C2CC2)c1` was tested. Which % of control [4] did it give?
**A.** 100%

**Q.** Which % of inhibition [5] does the source give for `CNC(=O)Nc1ccc(-c2nc(N3CC4CCC(C3)O4)c3cnn(C4CCC5(CC4)OCCO5)c3n2)cc1` here?
**A.** 15%

**Q.** Which % of engagement [6] does the source give for `C=CC(=O)Nc1ccc(C(=O)Nc2[nH]nc3c2CN(C(=O)N[C@H](CN(C)C)c2ccccc2)C3(C)C)cc1` here?
**A.** 4.4%
